Measured values as given in patent US20190183894A1, “METHOD OF TREATMENT OF DIABETIC FOOT ULCERS” (Malesil Research & Technology LLC, priority 2017, published 2019).
Read-outs that look alike come from different tables or passages of the source.

Experiments:
[1] = cited from earlier work
[2] = test system: diabetic patients with grade 2 and grade 3 ulcers (Wagner classification); type: in vivo, human
Description: In order to assess the effect of sildenafil maleate in treatment of diabetic foot ulcers, a 12-week open-label longitudinal study was conducted to compare the conventional treatment and the conventional treatment with simultaneous administration of sildenafil maleate.
Diabetic patients with grade 2 and grade 3 ulcers were selected, according to Wagner classification and complying with the following inclusion and exclusion criteria:
Inclusion Criteria: • Male or female patients with type-2 Diabetes Mellitus • Age younger than 80 years • Grade-2 or -3 foot or leg ulcer, of any origin according to Wagner classification, without compromising tendons nor bone, with a progression time not higher than 3 months. • Presence or absence of localized infection • Without peripheral vascular obstruction
Exclusion Criteria • Type-1 Diabetes Mellitus patients • Grade-4 foot or leg ulcer according to Wagner classification or foot or knuckle necrosis • Peripheral vascular obstruction (ankle/arm index lower than 0.3) • Patients with creatinine higher than 1.2 mg/dL or blood urea nitrogen (BUN) higher than 50 • Transaminases 2 times above baseline • Microalbuminuria higher than 100
Patients who meet inclusion and exclusion criteria, who voluntarily accept to participate in the study and further signing a written consent, are randomly assigned to two study groups:
Group I: Conventional treatment
Group II: Conventional treatment with simultaneous administration of sildenafil maleate.
Patients are required to perform wound treatment and to register lesion progression.
Visit 1 • Signature of written consent • Physical examination • Petition of clinical lab examinations: complete blood count, glycosilated hemoglobin (HbA1c), total colesterol, total lipids, triglycerides, HDL-colesterol, urea, creatinine, microalbumina, aspartate aminotransferase (TGO), alanine aminotransferase (TGP), reactive, ultra-sensitive C-protein (PCR-u), urine test, pre and postprandial glycemia, lesion culture when required. • Conventional healing of lesion • Arterial Doppler request of affected limb • Provide treatment with antibiotics when necessary
Visit 2 (1 to 3 Days after Visit 1) • Interpretation of lab examination and Doppler study • Clinical/physical lesion examination • Patient inclusion/exclusion decision into the study • Random assignment of study groups • Registration of lesion characteristics (lesion photographs) • Assessment of metabolic control
Visit 3 (1 to 3 Days after Visit 2) • Registration of lesion progression (lesion photographs) • Assessment of patient's metabolic control • Delivery of corresponding medicaments (antibiotics and sildenafil maleate as applicable) • Registration de adverse events
Visit 4 Until Week 12 of Study (2 to 3 Times Per Week) • Registration of lesion progression (lesion photographs) • Registration de adverse events • Assessment of metabolic control
Visit 5 (1 to 5 Days after Final Visit) • Registration of lesion progression (lesion photographs) • Registration of adverse events • Compliance with study medication intake • Education for future lesion prevention
Wound treatment applied to all patients during each visit consists of cleaning with […] and distilled water, using sterile material; ointment MEBO® (Moist exposed Burn Treatment) was locally applied and dressing with sterile gauze when needed.
Study medication was delivered in accordance with the previously established protocol; compliance with medication intake and presence of adverse events was verified. Medication was suspended in case of showing any adverse effect, even a mild event associated with study medicament (sildenafil maleate).

sildenafil maleate
absorption compared with sildenafil citrate ([1]; in vivo): faster absorption | bioequivalence with sildenafil citrate ([1]; in vivo): bioequivalent | plasma protein binding ([1]; in vivo): mostly bound to plasma proteins | delay of maximum peak ([1]; ingested during a high fat content meal): 60 min | time to maximum concentration ([1]; oral administration, fasting subjects): 60 min | distribution volume ([1]; stationary media (steady state)): 105 L | effect on macro and microcirculation, granulation and healing of ulcers ([2]; 10-mg daily dose, oral, diabetic foot patients): improvement in macro and microcirculation | recovery of patients with previous amputations ([2]; Group II patients who had previous amputations): total recovery | blood flow and health status of lower limbs after end of treatment ([2]; Group II patients whose treatment concluded before the 12 weeks): kept an improvement in blood flow | patients who obtained a satisfactory result (lesion healing) ([2]; Group II: conventional treatment with simultaneous sildenafil maleate): 100% | adverse events ([2]; in vivo): did not experience adverse events | side effects ([2]; in vivo, po): does not show side effects | lower healing time than group with conventional treatment ([2]; patients with grade 2 ulcers): 20 days | Average healing time (Group II) ([2]; ulcer grade 2 according to Wagner scale): 47 days | Average healing time (Group II) ([2]; ulcer grade 3 according to Wagner scale): 81 days | Average healing time (Group II) ([2]; ulcer grades 2 and 3 according to Wagner scale): 55 days | decrease of recovery time ([2]; vs conventional treatment, regardless of ulcer grade and lesion area): about 20 days
